Measured values published in patent publication US12269816B2, “Benzothiophene compound, preparation method therefor and use thereof” (SICHUAN KELUN-BIOTECH BIOPHARMACEUTICAL CO., LTD., priority 2019, dated 2025).

Tests used:
[1] = test system: STING-mediated interferon (IFN) signal reporter gene in THP1-Blue™ ISG cells; assay: STING-mediated interferon (IFN) signal SEAP reporter gene assay in THP1-Blue ISG cells; type: cell-based, human; settings: for EC50: Homo sapiens, 16 h incubation, SEAP reporter read at OD620nm; for Emax (OD620nm): highest OD620nm value generated by stimulation of the compound, 16 h; for agonistic effect on the STING-mediated Interferon (IFN) signal pathway: result in words
Source text: In this experiment, the activity of the SEAP (secreted embryonic alkaline phosphatase) reporter gene regulated by the IFN regulatory factor (interferon regulatory factor) was detected in the THP1-Blue™ ISG cells (InvivoGen) to evaluate the agonistic effect of the compounds to be tested on the STING-mediated IFN signal pathway at the cellular level.
The THP1-Blue™ ISG cells (InvivoGen) in the logarithmic phase were centrifuged, and resuspended in a cell culture solution to a density of 2×10^6 cells/ml. The cell suspension was inoculated in a 96-well cell culture plate (Corning) at 50 μL/well. The mother liquor of the compound to be tested was gradiently diluted with a cell culture solution to obtain a 2× working concentration diluted solution (control compounds 1 and 2 were diluted at a 3-fold gradient: 200, 66.67, 22.22, 7.41, 2.47, 0.82, 0.27 and 0 μM; compounds 1, 2, 4, 6, 8, and 23 were diluted at a 8-fold gradient: 60, 7.5, 0.94, 0.12, 0.015, 0.0018, 0.00023 and 0 μM; and compounds 3 and 5 were diluted at a 10-fold gradient: 10, 1, 0.1, 0.01, 0.001, 0.0001, 0.00001 and 0 μM). The 2× working concentration diluted solution of the compound was added into a 96-well plate (50 μl of the culture solution containing 2% DMSO was added into the negative control well) at 50 μL/well. The culture plate was then placed in a cell incubator, and incubated for 16 h. After the cell incubation, 10 μL of the cell culture supernatant was transferred to a 96-well plate, and a QUANTI-Blue (InvivoGen) solution was added at 90 μL/well. The cells were incubated at 37° C. for 3 h. The absorbance at 620 nm (OD620nm) was read with a microplate reader.
In the table, EC50 refers to the concentration of a compound when ODM620nm value generated by stimulation of the compound reaches half of Emax; and Emax refers to the highest OD620nm value generated by stimulation of the compound.

[2] = test system: STING pathway cytokine hIFN-β in human THP-1 cells; assay: ELISA of STING pathway cytokine hIFN-β expression in human THP-1 cells; type: cell-based; settings: for EC50: hIFN-β expression; for EC50 / Emax: 8 hours, ELISA; for Emax: highest expression of hIFN-β; for agonistic effect on the expression of hIFN-β: result in words
Source text: In this experiment, the expression of STING signal pathway cytokine hIFN-β was detected in THP1 cells (Nanjing Cobioer) by the ELISA method, so as to evaluate the agonistic effect of the compounds to be tested on the expression of STING pathway cytokine hIFN-β at the cellular level.
THP1 cells (Nanjing Cobioer) in the logarithmic phase were centrifuged, and resuspended in a cell culture solution to a density of 8×10^6 cells/ml. The cell suspension was inoculated into a 24-well cell culture plate (Corning) at 250 μL/well.
The mother liquor of the compound to be tested was diluted with a cell culture solution to obtain a 2× working concentration diluted solution (control compounds 1 and 2 were diluted at a 2-fold gradient: 200, 100, 50, 25, 12.5, 6.25, 3.125, 1.5625 and 0 μM; and compounds 4, 6, and 8 were diluted at a 3-fold gradient: 200, 66.67, 22.22, 7.41, 2.47, 0.82, 0.27, 0.091 and 0 μM). The 2× working concentration diluted solution of the compound was added into 24-well plate (250 μl of the culture solution containing 2% DMSO was added into the negative control well) at 250 μL/well. The culture plate was placed in a cell culture incubator, and incubated for 8 hours. After the cell incubation, the supernatant was collected by centrifugation at 300 g×5 min, and the hIFN-β content (pg/ml) in the cell culture supernatant was detected according to the operating instructions of the VeriKine Human […] ELISA kit from PBL (obtained by conversion of the […] absorbance-hIFN-β standard concentration standard curve and the OD450 nm absorbance value read by the microplate reader). […] was calculated through log(agonist) vs. response—Variable slope fitting by the Graphpad Prism software, and the experimental results are shown in Table 2.
In the table, EC50 refers to the concentration of a compound when the expression of hIFN-β generated by stimulation of the compound reaches half of Emax and Emax refers to the highest expression of hIFN-β generated by stimulation of the compound.

hSTING protein = target: T1, hSTING protein (Homo sapiens, UniProt Q86WV6); assay: Human STING binding kit (HTRF) competitive binding assay; settings: for Ki: calculated as Ki=1/2*IC50 per kit instructions; for IC50: competition with d2-STING-ligand for 6×His-hSTING, HTRF, 3 h at 25° C.; for binding affinity to the hSTING protein: result in words
T1 construct: purchased Cisbio
Source text: In this experiment, the capability of the compound and the specific ligand (d2-STING-ligand) in a Human STING binding kit from Cisbio for competitively binding to the 6×His-hSTING protein was detected using the Human STING binding kit (HTRF method), so as to evaluate the binding affinity between the compound to be tested and the hSTING protein.
The compound was gradiently diluted with a dilution buffer in the Human STING binding kit (the diluent buffer reagent) to obtain a 4× working concentration diluted solution. […] The 6×His-hSTING protein (50× in the mother liquor) was diluted to 1× with the detection buffer in the Human STING binding kit (the detection buffer reagent). 5 μl of the diluted solution was added into the corresponding wells of a 384-well plate, and the well with no protein and no compound was set as a negative control well (min), while the well with the protein and no compound was set as a positive control well (max). The d2-STING-ligand and Tb^3+-anti-6×His-antibody (both 50× in the mother liquor) were diluted to 1× with the detection buffer in the Human STING binding kit (the detection buffer reagent), and mixed uniformly at a ratio of 1:1. 10 μl of the mixed solution was added to the corresponding wells of a 384-well plate. The plate was sealed and incubated at room temperature (25° C.) for 3 h. A BMG microplate reader was used to read HTRF, and the ratio was calculated according to the following formula: Ratio=signal665nm/signal620nm×10000. […] IC50 was calculated through log(inhibitor) vs. response—Variable slope fitting by the Graphpad Prism software.

T1 sequence (Q86WV6 whole entry H232R): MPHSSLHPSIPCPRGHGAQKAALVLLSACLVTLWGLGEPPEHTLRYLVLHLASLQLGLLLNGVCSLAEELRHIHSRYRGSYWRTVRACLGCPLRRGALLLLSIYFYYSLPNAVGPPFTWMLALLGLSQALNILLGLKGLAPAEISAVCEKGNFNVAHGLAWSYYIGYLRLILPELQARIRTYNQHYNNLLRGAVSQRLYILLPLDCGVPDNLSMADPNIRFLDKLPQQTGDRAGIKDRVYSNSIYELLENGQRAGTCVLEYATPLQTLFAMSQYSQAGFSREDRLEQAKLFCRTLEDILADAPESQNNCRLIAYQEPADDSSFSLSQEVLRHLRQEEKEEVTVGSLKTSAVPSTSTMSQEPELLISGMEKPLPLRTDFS

Structure (SMILES)	EC50 [1]	Emax (OD620nm) [1]	agonistic effect on the STING-mediated Interferon (IFN) signal pathway [1]	EC50 [2]	Emax [2]	agonistic effect on the expression of hIFN-β [2]	Ki (hSTING protein)	IC50 (hSTING protein)	binding affinity to the hSTING protein (hSTING protein)
COc1cc2sc(C(=O)N(C)CCC(=O)O)cc2cc1OCCCOc1cc2sc(C(=O)CCC(=O)O)cc2cc1OC [Compound 4, 4-(6-(3-((2-((2-carboxyethyl)(methyl)carbamoyl)-6-methoxybenzo[b]thiophen-5-yl)oxy)propoxy)-5-methoxybenzo[b]thiophen-2-yl)-4-oxobutanoic acid]	35.5 nM	1.97 OD620nm	strong agonistic effects	5570 nM	908.0 pg/mL	strong agonistic effect	16.1 nM	32.2 nM	strong binding affinity
COc1cc2sc(C(=O)CCC(=O)O)cc2cc1OCCCOc1cc2cc(C(=O)N(C)CCC(=O)O)sc2cc1OC [Compound 8, 4-(5-(3-((2-((2-carboxyethyl)(methyl)carbamoyl)-6-methoxybenzo[b]thiophen-5-yl)oxy)propoxy)-6-methoxybenzo[b]thiophen-2-yl)-4-oxobutanoic Acid]	55.3 nM	1.73 OD620nm	strong agonistic effects	1250 nM	917.1 pg/mL	strong agonistic effect	0.069 nM	0.139 nM	strong binding affinity
COc1cc2sc(C(=O)CCC(=O)O)cc2cc1OCCCOc1cc2sc(C(=O)N(C)CCC(=O)O)cc2cc1OC [Compound 6, 4-(5-(3-((2-((2-carboxyethyl)(methyl)carbamoyl)-5-methoxybenzo[b]thiophen-6-yl)oxy)propoxy)-6-methoxybenzo[b]thiophen-2-yl)-4-oxobutanoic acid]	74.5 nM	1.88 OD620nm	strong agonistic effects	1820 nM	829.6 pg/mL	strong agonistic effect	4.55 nM	9.1 nM	strong binding affinity
